Laboratory results published in patent publication US20250000998A1, “MEDICAMENT FOR KILLING TUMOR CELLS” (PhotoQ3 Inc., priority 2021, published 2025).

Tested on: A549 (human lung cancer cell) xenograft
Assay: Tumor regression effect in tumor-bearing mice by iTAP treatment (A549 cell line xenograft mouse)
Format: in vivo, BALB/c Slc-nu/nu mice
Settings: Laserphyrin 5 mg/kg with 664 nm laser light 30 J/cm^2, IT-Cetuximab 3 mg/kg, alone or combined
Protocol: Separately cultured A549 cells were adjusted to 1×10^7 cells/100 μL, and the cells were subcutaneously administered (SC) to the right thigh of 7-week-old male BALB/c Slc-nu/nu mice, and xenograft mice (tumor-bearing mice) were produced. Tumor size was calculated using the following formula.
Tumor volume (mm^3)=major axis (mm)×minor axis (mm)×minor axis (mm)×0.5
When the tumor size of the mice reached an average size of approximately 150 mm^3, the mice were randomly divided into the following groups (n=3). • Condition (1) Control group: No administration • Condition (2) Laserphyrin (5 mg/kg) administration and 664 nm laser light (30 J/cm^2) • irradiation group • Condition (3) IT-Cetuximab (3 mg/kg) administration group • Condition (4) Laserphyrin (5 mg/kg), IT-Cetuximab (3 mg/kg) administration and 664 nm laser light (30 J/cm^2) irradiation group
IT-Cetuximab was administered intraperitoneally to mice, and 2 days later, Laserphyrin was administered through the tail vein. Furthermore, 2 hours after the administration of Laserphyrin, the tumor site was locally irradiated with a 664 nm laser light.
Tumor size was measured every 3 to 5 days after administration.

C=Cc1c(C)c2cc3nc(c(CC(=O)N[C@@H](CC(=O)O)C(=O)O)c4[nH]c(cc5nc(cc1[nH]2)C(C)=C5CC)c(C)c4C(=O)O)[C@@H](CCC(=O)O)[C@@H]3C [Laserphyrin, Talaporfin Sodium]
macroscopic observation of the tumor: tumor growth was confirmed macroscopically
